# Patent US20120283297A1, “OXADIAZOLE SUBSTITUTED INDAZOLE DERIVATIVES FOR USE AS SPHINGOSINE 1-PHOSPHATE 1 (S1P1) RECEPTOR AGONISTS” (GLAXO WELLCOME HOUSE, priority 2009, published 2012)
# Target: T1, S1P1 receptor (Homo sapiens, UniProt P21453)
# T1 construct: TEV protease site; Gal4-VP16 transcription factor; expressed in transfected cells; host or cells: Tango GPCR-bla U2OS parental cell line (EDG1-bla/U2OS)
# Assay: S1P1 Tango Assay
# Assay type: cell-based
# Conditions: agonist activity, recombinant EDG1-bla/U2OS cells, beta-lactamase FRET readout
# Excerpt: The potencies and efficacies of the compounds of this invention for the S1P1 receptor can be determined by S1P1 Tango assay performed on the human cloned receptor as described herein.
# Recombinant EDG1-bla/U2OS cells (contain the human Endothelial Differentiation Gene 1 (EDG1) linked to a TEV protease site and a Gal4-VP16 transcription factor stably integrated into the Tango GPCR-bla U2OS parental cell line) were harvested from growth medium and passaged into assay medium (Invitrogen Freestyle Expression Medium). The cells were starved for 24 hours at 37° C., 5% CO2, harvested and resuspended in assay medium at a density of ˜200,000 cells/ml. All test compounds were dissolved in DMSO at a concentration of 10 mM and were prepared in 100% DMSO to provide 10 point dose response curves. Test compounds prepared by Bravo (Velocity11) were added to wells in columns 2-11 and 13-22; DMSO was added to wells in columns 12 and 23 as unstimulated controls and assay medium was added to wells in columns 1 and 24 as cell-free controls. An S1P1 agonist was added to wells in row 2, columns 2-11 as stimulated controls and test compounds were added to wells in row 2, columns 13-22 and rows 3-15, columns 2-11/13-22 (row 1 and 16 were empty and not used). Compounds in solution were added to the assay plate (Greiner 781090) using an Echo (Labcyte) dose-response program (50 nl/well). The unstimulated and cell-free controls were loaded with 50 nl/well pure DMSO to ensure that the DMSO concentration was constant across the plate for all assays.
# 50 μl of the cell suspension was added to each well in columns 2-23 of the plate (˜10,000 cells per well). 50 μl of assay medium was added to each well in the cell-free controls (columns 1 and 24). The cells were incubated overnight at 37° C./5% CO2. 10 μl of 6× substrate mixture (LiveBLAzer™-FRET BIG substrate (CCF4-AM) Cat # K1096 from Invitrogen, Inc.) was added to each well using Bravo and the plates incubated at room temperature for 2 h in the dark. The plate was finally read on EnVision for two emission channels (460 nm and 530 nm).
# The blue/green emission ratio (460 nm/530 nm) was calculated for each well, by dividing the background-subtracted Blue emission values by the background-subtracted Green emission values. The dose response curve is based on sigmoidal dose-response model. All ratio data was normalized based upon the maximum emission ratio of positive control and minimum emission ratio of negative control (DMSO) on each plate. The intrinsic activity (IA) of each compound would be the normalized percentage of its maximum response after curve fitting.
# T1 sequence (P21453 whole entry, the tested form may be a part): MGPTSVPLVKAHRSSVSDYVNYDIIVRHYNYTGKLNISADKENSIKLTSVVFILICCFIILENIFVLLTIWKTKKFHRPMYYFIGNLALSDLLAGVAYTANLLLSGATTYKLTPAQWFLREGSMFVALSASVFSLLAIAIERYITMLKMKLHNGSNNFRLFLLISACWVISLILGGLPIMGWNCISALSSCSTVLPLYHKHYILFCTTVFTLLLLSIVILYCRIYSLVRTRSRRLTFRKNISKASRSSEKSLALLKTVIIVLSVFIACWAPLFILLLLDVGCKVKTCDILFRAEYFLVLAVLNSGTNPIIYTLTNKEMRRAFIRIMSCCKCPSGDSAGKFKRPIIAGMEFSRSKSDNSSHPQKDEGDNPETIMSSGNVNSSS
row,EC50 [nM],SMILES
1,1 to 10,"CC(C)Oc1ccc(-c2nc(-c3cccc4c3cnn4CC(O)C(=O)O)no2)cc1Cl (single isomer, unassigned) [Example 9, Lithium 3-[4-(5-{3-chloro-4-[(1-methylethyl)oxy]phenyl}-1,2,4-oxadiazol-3-yl)-1H-indazol-1-yl]-2-hydroxypropanoate]"
2,≤ 1,"CC(C)Oc1ccc(-c2nc(-c3ccc4[nH]ncc4c3)no2)cc1Cl [Example 1, 5-(5-{3-Chloro-4-[(1-methylethyl)oxy]phenyl}-1,2,4-oxadiazol-3-yl)-1H-indazole]"
3,1 to 10,"CC(C)Oc1ccc(-c2nc(-c3ccc4[nH]ncc4c3)no2)cc1C#N [Example 2, 5-[3-(1H-Indazol-5-yl)-1,2,4-oxadiazol-5-yl]-2-[(1-methylethyl)oxy]benzonitrile]"
4,≤ 1,"CC(C)Oc1ccc(-c2nc(-c3cccc4[nH]ncc34)no2)cc1C#N [Example 3, 5-[3-(1H-Indazol-4-yl)-1,2,4-oxadiazol-5-yl]-2-[(1-methylethyl)oxy]benzonitrile]"
5,10 to 100,"CC(C)Oc1ccc(-c2nc(-c3cccc4[nH]ncc34)no2)cc1Cl [Example 4, 4-(5-{3-Chloro-4-[(1-methylethyl)oxy]phenyl}-1,2,4-oxadiazol-3-yl)-1H-indazole]"
6,10 to 100,"CC(C)Oc1ccc(-c2nc(-c3cccc4c3cnn4CC(C)C(=O)O)no2)cc1Cl (centres unmarked) [Example 5, 3-[4-(5-{3-Chloro-4-[(1-methylethyl)oxy]phenyl}-1,2,4-oxadiazol-3-yl)-1H-indazol-1-yl]-2-methylpropanoic acid]"
7,10 to 100,"CC(C)Oc1ccc(-c2nc(-c3cccc4c3cnn4CCCCC(=O)O)no2)cc1Cl [Example 6, 5-[4-(5-{3-Chloro-4-[(1-methylethyl)oxy]phenyl}-1,2,4-oxadiazol-3-yl)-1H-indazol-1-yl]pentanoic acid]"
8,10 to 100,"CC(C)Oc1ccc(-c2nc(-c3cccc4c3cnn4C3(CC(=O)O)COC3)no2)cc1Cl [Example 8, {3-[4-(5-{3-Chloro-4-[(1-methylethyl)oxy]phenyl}-1,2,4-oxadiazol-3-yl)-1H-indazol-1-yl]-3-oxetanyl}acetic acid]"
9,10 to 100,"CC(C)Oc1ncc(-c2nc(-c3ccc4c(cnn4CCC(=O)O)c3)no2)cc1Cl [Example 10, 3-[5-(5-{5-Chloro-6-[(1-methylethyl)oxy]-3-pyridinyl}-1,2,4-oxadiazol-3-yl)-1H-indazol-1-yl]propanoic acid]"
10,10 to 100,"CC(C)Oc1ncc(-c2nc(-c3ccc4[nH]ncc4c3)no2)cc1Cl [Example 11, 5-(5-{5-Chloro-6-[(1-methylethyl)oxy]-3-pyridinyl}-1,2,4-oxadiazol-3-yl)-1H-indazole]"
11,1 to 10,"Cc1c(-c2noc(-c3cnc(OC(C)C)c(Cl)c3)n2)ccc2c1cnn2CCCC(=O)O [Example 13, 4-[5-(5-{5-Chloro-6-[(1-methylethyl)oxy]-3-pyridinyl}-1,2,4-oxadiazol-3-yl)-4-methyl-1H-indazol-1-yl]butanoic acid]"
12,≤ 1,"CC(C)Oc1ncc(-c2nc(-c3ccc4c(cnn4CCCC(=O)O)c3)no2)cc1C#N [Example 14, 4-[5-(5-{5-Cyano-6-[(1-methylethyl)oxy]-3-pyridinyl}-1,2,4-oxadiazol-3-yl)-1H-indazol-1-yl]butanoic acid]"
13,10 to 100,"CC(C)Oc1ncc(-c2nc(-c3cc4cnn(CCCC(=O)O)c4cc3F)no2)cc1Cl [Example 17, 4-[5-(5-{5-Chloro-6-[(1-methylethyl)oxy]-3-pyridinyl}-1,2,4-oxadiazol-3-yl)-6-fluoro-1H-indazol-1-yl]butanoic acid]"
14,1 to 10,"CC(C)Oc1ncc(-c2nc(-c3cc4cn[nH]c4cc3Cl)no2)cc1Cl [Example 19, 6-Chloro-5-(5-{5-chloro-6-[(1-methylethyl)oxy]-3-pyridinyl}-1,2,4-oxadiazol-3-yl)-1H-indazole]"
